Assay results reported in US6872562B2, “Herbicide resistant dinitrogen fixing bacteria and method of use” (priority 2001, dated 2005).

Test system: GR soybean cultivar Terral TV5866RR
Assay: Greenhouse Example 1: biomass, nitrogen content and nodules of TV5866RR after postemergence glyphosate
Format: in vivo, soybean (Glycine max)
Details: for Nodules per plant Run 1 / Individual nodule mass Run 2 / Nodules per plant Run 2 / Individual nodule mass Run 1: Harvest 2 (40 DAE)
Procedure: Seeds were planted in 15-cm pots with an approximate soil volume of 1.9 L. The potting medium was a nitrogen-free peat/vermiculite/perlite mixture (LB2, Sun Gro Horticulture Inc., 1830 Knob Hill, Garland, Tex. 75403). Soil was saturated with deionized (DI) water and then 500 mL of full-strength, nitrogen-free nutrient solution (de Silva et al., 1996) was added prior to planting. Pots were inoculated with approximately 1×10^7 cells of B. japonicum (USDA 110) at sowing. After emergence, plants were thinned to one per pot and reinoculated with B. japonicum. Plants were well watered by adding deionized (DI) water daily, and each pot received 250 mL of nitrogen-free nutrients weekly after emergence. Day and night temperatures were approximately 30 and 24 C, respectively, and natural illumination was supplemented with 1000 W metal-halide lamps for a day length of 16 h.
Each application was as a postemergence over-the-top spray to soybean plants using a moving-nozzle spray chamber. At each harvest, plants were separated into shoots, roots, and nodules. Nodules were photocopied, and total number of nodules per plant was determined from the photocopies. Plant sections were oven dried at 65 C for 48 h, weighed, and ground to pass a 1-mm sieve. Total nitrogen was determined for shoots and root plus nodule dry matter with a Leco FP-228 Determinator (Leco Corporation, St Joseph, Mich.) by the Agriculture Services Laboratory, University of Arkansas. The experiment consisted of six replications and was repeated. Seed for Run 1 and Run 2 of the experiment were planted on 25 February and 14 April, respectively. […] Treatment means were compared using Fisher's Protected least significant difference (LSD, P≦0.05).

[1] = Harvest 1 (19 DAE), averaged across runs
[2] = TV5866RR, Harvest 1 (19 DAE), early treatment
[3] = TV5866RR, Harvest 1 (19 DAE), early treatment: foliar 1.68 kg ha^−1 at 5 and 12 DAE

SMILES: O=C(O)CNCP(=O)(O)O [glyphosate, N-(phosphonomethyl)glycine]
- Number of nodules per plant vs untreated (Harvest 1 (19 DAE)): no difference
- Nitrogen accumulation decrease in roots [1]: 36%
- Nitrogen accumulation decrease in shoots [1]: 34%
- Nodule mass effect (Harvest 1, Run 2, 19 DAE): not affected
- Total nodule weight decrease (Harvest 1, Run 1): 34%
- Nodules per plant Run 1 (Early treatment, Run 1): 138 number
- Individual nodule mass Run 2 (Early treatment, Run 2): 1.70 mg nodule^−1
- Nodules per plant Run 2 (Early treatment, Run 2): 256 number
- Individual nodule mass Run 1 (Early: 1.68 kg ha^−1 on 5 and 12 DAE, Run 1): 2.73 mg nodule^−1
- Nodules per plant Run 1 (Late treatment, Run 1): 150 number
- Individual nodule mass Run 2 (Late treatment, Run 2): 2.00 mg nodule^−1
- Nodules per plant Run 2 (Late treatment, Run 2): 209 number
- Individual nodule mass Run 1 (Late: 1.68 kg ha^−1 on 18, 25, and 32 DAE, Run 1): 2.79 mg nodule^−1
- Root biomass effect (TV5866RR, Harvest 1): not decreased
- Shoot biomass decrease (TV5866RR, Harvest 1 (19 DAE)): 17%
- Nitrogen Root [2]: 4.2 mg plant^−1
- Nitrogen Shoot [2]: 8.9 mg plant^−1
- Biomass Root [3]: 0.17 g plant^−1
- Biomass Shoot [3]: 0.40 g plant^−1
- Biomass Nodules Run 1 (TV5866RR, Harvest 1 (19 DAE), early treatment, Run 1): 0.043 g plant^−1
- Biomass Nodules Run 2 (TV5866RR, Harvest 1 (19 DAE), early treatment, Run 2): 0.088 g plant^−1
- Visual observation of plants (between 12 and 20 DAE): yellowed
- Effect on plant mass, plant color, or plant N content (by 40 DAE in Run 2): no apparent effect
